Measurements as given in patent publication US9994581B2, “Bromodomain inhibitors” (AbbVie Inc., priority 2013, dated 2018).
Like-named read-outs stand apart in the source and are kept apart here.

Experiments:
BRD4 (BDI-BDII_K57-K550) = BRD4 (BDI-BDII_K57-K550) (Homo sapiens, UniProt O60885); experiment: TR-FRET bromodomain binding assay; settings: His-tagged tandem bromodomain, Alexa647-labeled probe; Ki calculated from IC50s, probe Kd and probe concentration
Experimental: A time-resolved fluorescence resonance energy transfer (TR-FRET) assay was used to determine the affinities of compounds of the Examples listed in Table 1 for the tandem domain of bromodomain BRD4. […] An Alexa647-labeled BET-inhibitor was used as the fluorescent probe in the assay.
TR-FRET data were normalized to the means of 24 no-compound controls (“high”) and 8 controls containing 1 μM un-labeled probe (“low”). Percent inhibition was plotted as a function of compound concentration and the data were fit with the 4 parameter logistic equation to obtain IC50s. Inhibition constants (Ki) were calculated from the IC50s, probe Kd and probe concentration. Typical Z′ values were between 0.65 and 0.75.

[1] = system: breast cancer cell line MX-1; experiment: MX-1 cell line proliferation assay (3-day, Cell Titer Glo); assay type: cell-based; settings: 72 hours, read-out: Cellular proliferation: EC50
Experimental: The impact of compounds of the Examples on cancer cell proliferation was determined using the breast cancer cell line MX-1 (ATCC) in a 3-day proliferation assay and the data are reported in Table 1. […] For compound testing, MX-1 cells were plated in 96-well black bottom plates at a density of 5000 cells/well in 90 μL of culture media and incubated at 37° overnight to allow cell adhesion and spreading. Compound dilution series were prepared in DMSO via a 3-fold serial dilution from 3 mM to 0.1 μM. The DMSO dilution series were then diluted 1:100 in phosphate buffered saline, and 10 μL of the resulted solution were added to the appropriate wells of the MX-1 cell plate. The final compound concentrations in the wells were 3, 1, 0.3, 0.1, 0.03, 0.01, 0.003, 0.001, 0.0003, and 0.0001 μM, or 1, 0.3, 0.1, 0.03, 0.01, 0.003, 0.001, 0.0003, 0.0001, and 0.00003 μM.
Luminescence readings from the Cell Titer Glo assay were normalized to the DMSO treated cells and analyzed using the GraphPad Prism software with sigmoidal curve fitting to obtain EC50s.

Ki (BRD4 (BDI-BDII_K57-K550))	EC50 ([1]; Homo sapiens, MX1, MX-1 cells)	EC50 ([1]; MX-1 cells)	SMILES
4.06 nM	8.87 nM	–	CCS(=O)(=O)Nc1ccc2c(c1)-c1cn(C)c(=O)cc1OCC/C=C/c1cc(Cl)ccc1O2 [Example A-18, (E)-N-(11-chloro-2-methyl-3-oxo-2,3,6,7-tetrahydrodibenzo[4,5:7,8][1,6]dioxacyclododecino[3,2-c]pyridin-17-yl)ethanesulfonamide]
1.28 nM	> 1000 nM	–	CCS(=O)(=O)Nc1ccc2c(c1)-c1cn(C)c(=O)cc1OCCN(S(=O)(=O)NC(C)=O)Cc1cc(Cl)ccc1O2 [Example B-16, N-({11-chloro-17-[(ethylsulfonyl)amino]-2-methyl-3-oxo-2,3,6,7-tetrahydrodibenzo[f,i]pyrido[3,4-k][1,8,4]dioxazacyclododecin-8(9H)-yl}sulfonyl)acetamide]
2.14 nM	5.95 nM	–	CCS(=O)(=O)Nc1ccc2c(c1)-c1cn(C)c(=O)cc1OCCN(C1CCC1)Cc1cc(Cl)ccc1O2 [Example B-14, N-(11-chloro-8-cyclobutyl-2-methyl-3-oxo-2,3,6,7,8,9-hexahydrodibenzo[f,i]pyrido[3,4-k][1,8,4]dioxazacyclododecin-17-yl)ethanesulfonamide]
3.68 nM	24.4 nM	–	Cn1cc2c(cc1=O)OCCCCc1cc(C#N)ccc1Oc1ccc(NS(C)(=O)=O)cc1-2 [Example A-47, N-(11-cyano-2-methyl-3-oxo-2,3,6,7,8,9-hexahydrodibenzo[4,5:7,8][1,6]dioxacyclododecino[3,2-c]pyridin-17-yl)methanesulfonamide]
32.1 nM	50.7 nM	–	CCS(=O)(=O)Nc1ccc2c(c1)-c1cn(C)c(=O)cc1OCCCCc1cccnc1O2 [Example A-46, N-(12-methyl-11-oxo-5,6,7,8,11,12-hexahydrobenzo[4,5][1,6]dioxacyclododecino[7,8-b:3,2-c′]dipyridin-15-yl)ethanesulfonamide]
234 nM	–	709 nM	CCS(=O)(=O)c1ccc2c(c1)-c1cn(C)c(=O)cc1OCCc1ccccc1O2 [Example A-2, 3-(ethylsulfonyl)-6-methyl-10,11-dihydrodibenzo[4,5:7,8][1,6]dioxecino[3,2-c]pyridin-7(6H)-one]
3.06 nM	42.4 nM	–	CCS(=O)(=O)Nc1ccc2c(c1)-c1cn(C)c(=O)cc1OCC/C=C/Cc1cc(Cl)ccc1O2 [Example A-15, (E)-N-(12-chloro-2-methyl-3-oxo-3,6,7,10-tetrahydro-2H-dibenzo[4,5:7,8][1,6]dioxacyclotridecino[3,2-c]pyridin-18-yl)ethanesulfonamide]
9.45 nM	25.1 nM	–	CCS(=O)(=O)Nc1ccc2c(c1)-c1cn(C)c(=O)cc1OCCNCc1cc(Cl)ccc1O2 [Example B-11, N-(11-chloro-2-methyl-3-oxo-2,3,6,7,8,9-hexahydrodibenzo[f,i]pyrido[3,4-k][1,8,4]dioxazacyclododecin-17-yl)ethanesulfonamide]
15.6 nM	142 nM	–	CC(=O)Nc1ccc2c(c1)-c1cn(C)c(=O)cc1OCCN(C(C)=O)Cc1cc(Cl)ccc1O2 [Example B-2, N-(8-acetyl-11-chloro-2-methyl-3-oxo-2,3,6,7,8,9-hexahydrodibenzo[f,i]pyrido[3,4-k][1,8,4]dioxazacyclododecin-17-yl)acetamide]
0.87 nM	6.12 nM	–	CCS(=O)(=O)Nc1ccc2c(c1)-c1cn(C)c(=O)cc1OCCCCc1cc(OC(F)(F)F)ccc1O2 [Example A-37, N-[2-methyl-3-oxo-11-(trifluoromethoxy)-2,3,6,7,8,9-hexahydrodibenzo[4,5:7,8][1,6]dioxacyclododecino[3,2-c]pyridin-17-yl]ethanesulfonamide]
1.24 nM	29.7 nM	–	CCS(=O)(=O)Nc1ccc2c(c1)-c1cn(C)c(=O)cc1OCCN(C(=O)OC(C)(C)C)Cc1cc(Cl)ccc1O2 [Example B-10, tert-butyl 11-chloro-17-[(ethylsulfonyl)amino]-2-methyl-3-oxo-2,3,6,7-tetrahydrodibenzo[f,i]pyrido[3,4-k][1,8,4]dioxazacyclododecine-8(9H)-carboxylate]
14.7 nM	> 1000 nM	–	Cn1cc2c(cc1=O)OCCCCc1cc(Cl)ccc1Oc1ncc(C(=O)O)cc1-2 [Example A-38, 11-chloro-2-methyl-3-oxo-2,3,6,7,8,9-hexahydrobenzo[11,12][1,6]dioxacyclododecino[2,3-b:4,5-c′]dipyridine-17-carboxylic acid]
2.91 nM	14.2 nM	–	CCS(=O)(=O)Nc1ccc2c(c1)-c1nn(C)c(=O)cc1OCCCCc1cc(Cl)ccc1O2 [Example A-55, N-(11-chloro-2-methyl-3-oxo-2,3,6,7,8,9-hexahydrodibenzo[4,5:7,8][1,6]dioxacyclododecino[3,2-c]pyridazin-17-yl)ethanesulfonamide]
1.72 nM	14 nM	–	Cn1cc2c(cc1=O)OCCCCc1cc(C(F)(F)F)ccc1Oc1ccc(NS(C)(=O)=O)cc1-2 [Example A-51, N-(2-methyl-3-oxo-11-(trifluoromethyl)-2,3,6,7,8,9-hexahydrodibenzo[4,5:7,8][1,6]dioxacyclododecino[3,2-c]pyridin-17-yl)methanesulfonamide]
35.2 nM	347 nM	–	CCNC(=O)Nc1ccc2c(c1)-c1cn(C)c(=O)cc1OCCCc1cc(Cl)ccc1O2 [Example A-10, 1-(10-chloro-2-methyl-3-oxo-3,6,7,8-tetrahydro-2H-dibenzo[4,5:7,8][1,6]dioxacycloundecino[3,2-c]pyridin-16-yl)-3-ethylurea]
1.29 nM	10.8 nM	–	CCS(=O)(=O)c1ccc2c(c1)-c1cn(C)c(=O)cc1OCCCCc1ccc(Cl)cc1O2 [Example A-25, 12-chloro-17-(ethylsulfonyl)-2-methyl-6,7,8,9-tetrahydrodibenzo[4,5:7,8][1,6]dioxacyclododecino[3,2-c]pyridin-3(2H)-one]
24.2 nM	111 nM	–	CCS(=O)(=O)c1ccc2c(c1)-c1nn(C)c(=O)cc1OCCCCc1ccncc1O2 [Example A-59, 17-(ethylsulfonyl)-2-methyl-6,7,8,9-tetrahydrobenzo[4,5]pyrido[3′,4′:7,8][1,6]dioxacyclododecino[3,2-c]pyridazin-3(2H)-one]
1.22 nM	4.05 nM	–	Cn1cc2c(cc1=O)OCCCCc1ccc(Cl)cc1Oc1ccc(NS(C)(=O)=O)cc1-2 [Example A-44, N-(12-chloro-2-methyl-3-oxo-2,3,6,7,8,9-hexahydrodibenzo[4,5:7,8][1,6]dioxacyclododecino[3,2-c]pyridin-17-yl)methanesulfonamide]
15.7 nM	173 nM	–	Cn1cc2c(cc1=O)OCCCCc1cc(Cl)ccc1Oc1ncc(CO)cc1-2 [Example A-39, 11-chloro-17-(hydroxymethyl)-2-methyl-6,7,8,9-tetrahydrobenzo[11,12][1,6]dioxacyclododecino[2,3-b:4,5-c′]dipyridin-3(2H)-one]
5.37 nM	30.6 nM	–	CC(=O)Nc1ccc2c(c1)-c1cn(C)c(=O)cc1OCCCc1cc(Cl)ccc1O2 [Example A-11, N-(10-chloro-2-methyl-3-oxo-3,6,7,8-tetrahydro-2H-dibenzo[4,5:7,8][1,6]dioxacycloundecino[3,2-c]pyridin-16-yl)acetamide]
5.8 nM	1.16 nM	–	CCS(=O)(=O)c1ccc2c(c1)-c1cn(C)c(=O)cc1OCCCCc1cccc(C)c1O2 [Example A-60, 17-(ethylsulfonyl)-2,13-dimethyl-6,7,8,9-tetrahydrodibenzo[4,5:7,8][1,6]dioxacyclododecino[3,2-c]pyridin-3(2H)-one]
2.24 nM	3.72 nM	–	Cn1cc2c(cc1=O)OCCCCc1cc(F)ccc1Oc1ccc(NS(C)(=O)=O)cc1-2 [Example A-50, N-(11-fluoro-2-methyl-3-oxo-2,3,6,7,8,9-hexahydrodibenzo[4,5:7,8][1,6]dioxacyclododecino[3,2-c]pyridin-17-yl)methanesulfonamide]
5.1 nM	8.01 nM	–	CCS(=O)(=O)Nc1ccc2c(c1)-c1cn(C)c(=O)cc1OCCN(CC1CC1)Cc1cc(Cl)ccc1O2 [Example B-12, N-[11-chloro-8-(cyclopropylmethyl)-2-methyl-3-oxo-2,3,6,7,8,9-hexahydrodibenzo[f,i]pyrido[3,4-k][1,8,4]dioxazacyclododecin-17-yl]ethanesulfonamide]
7.7 nM	30.9 nM	–	Cn1cc2c(cc1=O)OCCOCc1cc(Cl)ccc1Oc1ccc(CS(C)(=O)=O)cc1-2 [Example B-17, 11-chloro-2-methyl-17-((methylsulfonyl)methyl)-6,7-dihydro-2H-dibenzo[6,7:9,10][1,4,8]trioxacyclododecino[11,12-c]pyridin-3(9H)-one]
1.27 nM	7.86 nM	–	CCS(=O)(=O)c1ccc2c(c1)-c1cn(C)c(=O)cc1OCCCCc1ccc(F)cc1O2 [Example A-23, 17-(ethylsulfonyl)-12-fluoro-2-methyl-6,7,8,9-tetrahydrodibenzo[4,5:7,8][1,6]dioxacyclododecino[3,2-c]pyridin-3(2H)-one]
